Where two headings read alike, the source gives them in different places.

Consider 34 compounds from patent US10030006B2, “Coumarin based Hsp90 inhibitors with urea and ether substituents” (University of Kansas, priority 2013, dated 2018).

Test [1] deals with MCF-7 (estrogen receptor positive breast cancer cells). The test can be described thus: Anti-proliferation assay (MTS/PMS, 72 h), MCF-7. In kind it is cell-based. The method, then: (§1) Cells were maintained in a 1:1 mixture of Advanced DMEM/F12 (Gibco) supplemented with non-essential amino acids, L-glutamine (2 mM), streptomycin (500 μg/mL), penicillin (100 units/mL), and 10% FBS. Cells were grown to confluence in a humidified atmosphere (37° C., 5% CO2), seeded (2000/well, 100 μL) in 96-well plates, and allowed to attach overnight. Compound at varying concentrations in DMSO (1% DMSO final concentration) was added, and cells were returned to the incubator for 72 h. At 72 h, the number of viable cells was determined using an MTS/PMS cell proliferation kit (Promega) per the manufacturer's instructions. Cells incubated in 1% DMSO were used at 100% proliferation, and values were adjusted accordingly. IC50 values were calculated from separate experiments performed in triplicate using GraphPad Prism.
(§2) The anti-proliferative activity of these compounds is evaluated against two breast cancer cell lines, SKBr3 (estrogen receptor negative, Her2 over-expressing breast cancer cells) and MCF-7 (estrogen receptor positive breast cancer cells).

The test system of test [2] is SKBr3 (estrogen receptor negative, Her2 over-expressing breast cancer cells). The test can be described thus: Anti-proliferation assay (MTS/PMS, 72 h), SKBr3. Format: cell-based. How it is done: as §1, §2
Where [3] appears, read: Table 3, cycloamine analogues, read-out: MCF-7.
[4] abbreviates: Table 3, cycloamine analogues, read-out: SKBr3.
The mark [5] stands for this setting: Table 9, non-aryl ureas, Breast Cancer, read-out: IC50 MCF-3.
Where [6] appears, read: Table 9, non-aryl ureas, Breast Cancer, read-out: IC50 SKBr3.
Where [7] appears, read: Homo sapiens, MCF7, Table 8, biphenyl ureas, Breast Cancer, read-out: IC50 MCF-3.
[8] abbreviates: Homo sapiens, SK-BR-3, Table 8, biphenyl ureas, Breast Cancer, read-out: IC50 SKBr3.
Setting [9] is: Homo sapiens, MCF7, Table 1, modified benzamide coumarin derivatives, read-out: MCF-7.
Where [10] appears, read: Homo sapiens, MCF7, Table 2, modified benzamide and biphenylamide derivatives (in μM), read-out: MCF-7.
Where [11] appears, read: Table 10, modified initial novobiocin analogs, read-out: SkBr3, IC50.
Where [12] appears, read: Homo sapiens, SK-BR-3, Table 1, modified benzamide coumarin derivatives, read-out: SKBr3.
[13] abbreviates: Homo sapiens, SK-BR-3, Table 2, modified benzamide and biphenylamide derivatives (in μM), read-out: SKBr3.
Where [14] appears, read: Homo sapiens, MCF7, Table 4, alkylamino analogues, read-out: MCF-7.
Where [15] appears, read: Homo sapiens, SK-BR-3, Table 4, alkylamino analogues, read-out: SKBr3.

On to `CC(=O)Oc1ccc(C(=O)Nc2cc3ccc(OCC4CCCN(C)C4)c(C)c3oc2=O)cc1CC=C(C)C` (centres unmarked), for which the IC50 was 1.65 ± 0.11 µM in test [1] (setting [3]) and 0.74 ± 0.01 µM in test [2] (setting [4]).

`CC(=O)Oc1ccc(C(=O)Nc2cc3ccc(OCC4CCN(C)C4)c(C)c3oc2=O)cc1CC=C(C)C` (centres unmarked): the IC50 was 1.88 ± 0.45 µM in test [1] (setting [3]) and 0.88 ± 0.09 µM in test [2] (setting [4]).

Consider `CC(=O)Oc1ccc(C(=O)Nc2cc3ccc(OCCC4CCCCN4)c(C)c3oc2=O)cc1CC=C(C)C` (centres unmarked), for which the figures for the IC50 in test [1] (setting [3]) and in test [2] (setting [4]) were 0.71 ± 0.03 µM and 0.64 ± 0.06 µM, respectively.

`CC(=O)Oc1ccc(C(=O)Nc2cc3ccc(OCC4CCCNC4)c(C)c3oc2=O)cc1CC=C(C)C` (centres unmarked): the IC50 in test [1] (setting [3]) stood at 0.82 ± 0.07 µM; in test [2] (setting [4]), 0.62 ± 0.04 µM.

For `CC(C)=CCc1cc(C(=O)Nc2cc3ccc(OCCC4CCCCN4)c(C)c3oc2=O)ccc1O` (centres unmarked), the IC50 is 0.71 ± 0.03 µM in test [1] (setting [3]) and 0.64 ± 0.06 µM in test [2] (setting [4]).

For the compound `CC(C)=CCc1cc(C(=O)Nc2cc3ccc(OCC4CCCN(C)C4)c(C)c3oc2=O)ccc1O` (centres unmarked), the IC50 in test [1] (setting [3]) came out at 2.64 ± 0.45 µM; in test [2] (setting [4]) it was 1.3 ± 0.63 µM.

Take `CC(C)=CCc1cc(C(=O)Nc2cc3ccc(OCC4CCCNC4)c(C)c3oc2=O)ccc1O` (centres unmarked): the IC50 in test [1] (setting [3]) was found to be 0.79 ± 0.1 µM; in test [2] (setting [4]), 0.6 ± 0.01 µM.

In the case of `CC(C)=CCc1cc(C(=O)Nc2cc3ccc(OCC4CCN(C)C4)c(C)c3oc2=O)ccc1O` (centres unmarked), the IC50 worked out at 1.55 ± 0.04 µM in test [1] (setting [3]) and 0.92 ± 0.56 µM in test [2] (setting [4]).

`CC(C)=CCc1cc(C(=O)Nc2cc3ccc(OCCCN4CCNCC4)c(C)c3oc2=O)ccc1O`: the IC50 in test [1] (setting [3]) is 0.93 ± 0.21 µM; in test [2] (setting [4]) it was 0.82 ± 0.02 µM.

As for `Cc1c(OC2CCN(C)CC2)ccc2cc(NC(=O)NCc3ccc(Cl)cc3)c(=O)oc12`, the IC50 in test [1] (setting [5]) worked out at 1.05 ± 0.07 µM; in test [2] (setting [6]), 1.04 ± 0.07 µM.

Take `COc1ccc(CNC(=O)Nc2cc3ccc(OC4CCN(C)CC4)c(C)c3oc2=O)cc1`: the IC50 in test [1] (setting [5]) amounted to 0.65 ± 0.11 µM; in test [2] (setting [6]) it was 0.68 ± 0.06 µM.

Regarding `Cc1ccc(CNC(=O)Nc2cc3ccc(OC4CCN(C)CC4)c(C)c3oc2=O)cc1`, the IC50 is 0.55 ± 0.02 µM in test [1] (setting [5]) and 0.56 ± 0.07 µM in test [2] (setting [6]).

For the compound `Cc1c(OC2CCN(C)CC2)ccc2cc(NC(=O)NCc3ccc(Oc4ccccc4)cc3)c(=O)oc12`, the IC50 in test [1] (setting [5]) amounted to 0.38 ± 0.04 µM; in test [2] (setting [6]), 0.23 ± 0.08 µM.

As for `Cc1ccc(NC(=O)Nc2cc3ccc(OC4CCN(C)CC4)c(C)c3oc2=O)cc1-c1cccc(Cl)c1` [CH3, Cl, 1-(3′-chloro-6-methyl-[1,1′-biphenyl]-3-yl)-3-(8-methyl-7-((1-methylpiperidin-4-yl)oxy)-2-oxo-2H-chromen-3-yl)urea], the IC50 was found to be 0.5 µM in test [1] (setting [7]) and 0.44 µM in test [2] (setting [8]).

`COc1cccc(-c2cc(NC(=O)Nc3cc4ccc(OC5CCN(C)CC5)c(C)c4oc3=O)ccc2C)c1` [CH3, OMe, 1-(3′-methoxy-6-methyl-[1,1′-biphenyl]-3-yl)-3-(8-methyl-7-((1-methylpiperidin-4-yl)oxy)-2-oxo-2H-chromen-3-yl)urea]: the IC50 in test [1] (setting [7]) was found to be 0.21 µM; in test [2] (setting [8]) it was 0.25 µM.

As for `CC(C)=CCc1cc(C(=O)Nc2cc3ccc(OC4CCN(C)CC4)c(C)c3oc2=O)ccc1O` [Compound 2], the IC50 was determined as 1.09 ± 0.1 µM in test [1] (setting [9]); 1.09 ± 0.1 µM in test [1] (setting [10]); 1.09 µM in test [1] (Homo sapiens, MCF7, amide versus urea linkage, read-out: IC50 for MCF-3).

With `Cc1c(OC2CCN(C)CC2)ccc2cc(NC(=O)Nc3ccc(Cl)cc3)c(=O)oc12` [Compound 8], the IC50 in test [2] (setting [11]) worked out at 0.17 ± 0.01 µM.

Take `Cc1ccc(NC(=O)Nc2cc3ccc(OC4CCN(C)CC4)c(C)c3oc2=O)cc1C` [Compound 10]: the IC50 in test [2] (setting [11]) was determined as 0.31 ± 0.09 µM.

As to `Cc1c(OCCC2CCCCN2)ccc2cc(NC(=O)Nc3ccc(Cl)cc3)c(=O)oc12` (centres unmarked) [Compound 11], the IC50 in test [2] (setting [11]) was determined as 0.21 ± 0.06 µM.

In the case of `COc1ccc(C(=O)Nc2cc3ccc(OC4CCN(C)CC4)c(C)c3oc2=O)cc1CC=C(C)C` [Compound 16, 4-methoxy-N-(8-methyl-7-(1-methylpiperidin-4-yloxy)-2-oxo-2H-chromen-3-yl)-3-(3-methylbut-2-enyl)benzamide], the IC50 in test [1] (setting [9]) was found to be 1.58 ± 0.09 µM; in test [2] (setting [12]) it was 1.41 ± 0.2 µM.

With `CCCCOc1ccc(C(=O)Nc2cc3ccc(OC4CCN(C)CC4)c(C)c3oc2=O)cc1CC=C(C)C` [Compound 17, 4-butoxy-N-(8-methyl-7-(1-methylpiperidin-4-yloxy)-2-oxo-2H-chromen-3-yl)-3-(3-methylbut-2-enyl)benzamide], the IC50 in test [1] (setting [9]) is 1.44 ± 0.05 µM; in test [2] (setting [12]), 1.4 ± 0.07 µM.

In the case of `C#CCOc1ccc(C(=O)Nc2cc3ccc(OC4CCN(C)CC4)c(C)c3oc2=O)cc1CC=C(C)C` [Compound 18, N-(8-methyl-7-(1-methylpiperidin-4-yloxy)-2-oxo-2H-chromen-3-yl)-3-(3-methylbut-2-enyl)-4-(prop-2-ynyloxy)benzamide], the values for the IC50 in test [1] (setting [9]) and in test [2] (setting [12]) were 1.12 ± 0.16 µM and 1.4 ± 0.11 µM, respectively.

With `CC(C)=CCc1cc(C(=O)Nc2cc3ccc(OC4CCN(C)CC4)c(C)c3oc2=O)ccc1OCCN(C)C` [Compound 23, 4-(2-(dimethylamino)ethoxy)-N-(8-methyl-7-(1-methylpiperidin-4-yloxy)-2-oxo-2H-chromen-3-yl)-3-(3-methylbut-2-enyl)benzamide], the IC50 was 0.72 ± 0.08 µM in test [1] (setting [10]) and 0.33 µM in test [2] (setting [13]).

As for `CC(C)=CCc1cc(C(=O)Nc2cc3ccc(OC4CCN(C)CC4)c(C)c3oc2=O)ccc1OCCCN(C)C` [Compound 24, 4-(3-(dimethylamino)propoxy)-N-(8-methyl-7-(1-methylpiperidin-4-yloxy)-2-oxo-2H-chromen-3-yl)-3-(3-methylbut-2-enyl)benzamide], the values for the IC50 in test [1] (setting [10]) and in test [2] (setting [13]) were 0.46 ± 0.05 µM and 0.25 ± 0.02 µM, respectively.

Turning to `CC(C)=CCc1cc(C(=O)Nc2cc3ccc(OC4CCN(C)CC4)c(C)c3oc2=O)ccc1OC1CCN(C)CC1` [Compound 25, N-(8-methyl-7-(1-methylpiperidin-4-yloxy)-2-oxo-2H-chromen-3-yl)-3-(3-methylbut-2-enyl)-4-(1-methylpiperidin-4-yloxy)benzamide], the values for the IC50 in test [1] (setting [10]) and in test [2] (setting [13]) were 0.47 ± 0.081 µM and 0.21 µM, respectively.

Take `CCNCCCOc1ccc2cc(NC(=O)c3ccc(O)c(CC=C(C)C)c3)c(=O)oc2c1C` [Compound 68a, N-(7-(3-(ethylamino)propoxy)-8-methyl-2-oxo-2H-chromen-3-yl)-4-hydroxy-3-(3-methylbut-2-en-1-yl)benzamide]: the IC50 was found to be 0.98 ± 0.35 µM in test [1] (setting [14]) and 0.72 ± 0.34 µM in test [2] (setting [15]).

Turning to `CCN(C)CCCOc1ccc2cc(NC(=O)c3ccc(O)c(CC=C(C)C)c3)c(=O)oc2c1C` [Compound 68b, N-(7-(3-(ethyl(methyl)amino)propoxy)-8-methyl-2-oxo-2H-chromen-3-yl)-4-hydroxy-3-(3-methylbut-2-en-1-yl)benzamide], the figures for the IC50 in test [1] (setting [14]) and in test [2] (setting [15]) were 2.19 ± 0.5 µM and 0.73 ± 0.06 µM, respectively.

Turning to `CCN(CC)CCCOc1ccc2cc(NC(=O)c3ccc(O)c(CC=C(C)C)c3)c(=O)oc2c1C` [Compound 68c], the IC50 in test [1] (Table 4, alkylamino analogues, read-out: MCF-7) is 6.39 ± 0.04 µM; in test [2] (Table 4, alkylamino analogues, read-out: SKBr3), 4.9 ± 0.42 µM.

Regarding `CCCNCCCOc1ccc2cc(NC(=O)c3ccc(O)c(CC=C(C)C)c3)c(=O)oc2c1C` [Compound 68d, 4-hydroxy-N-(8-methyl-2-oxo-7-(3-(propylamino)propoxy)-2H-chromen-3-yl)-3-(3-methylbut-2-en-1-yl)benzamide], the IC50 in test [1] (setting [14]) worked out at 0.98 µM; in test [2] (setting [15]), 0.99 ± 0.03 µM.

Consider `CC(C)=CCc1cc(C(=O)Nc2cc3ccc(OCCCNCC(C)C)c(C)c3oc2=O)ccc1O` [Compound 68f, 4-hydroxy-N-(7-(3-(isobutylamino)propoxy)-8-methyl-2-oxo-2H-chromen-3-yl)-3-(3-methylbut-2-en-1-yl)benzamide], for which the IC50 in test [1] (setting [14]) stood at 1.32 ± 0.06 µM; in test [2] (setting [15]), 1.03 ± 0.02 µM.

On to `CC(C)=CCc1cc(C(=O)Nc2cc3ccc(OCCCNC(C)C)c(C)c3oc2=O)ccc1O` [Compound 68g, 4-hydroxy-N-(7-(3-(isopropylamino)propoxy)-8-methyl-2-oxo-2H-chromen-3-yl)-3-(3-methylbut-2-en-1-yl)benzamide], for which the IC50 is 0.74 ± 0.16 µM in test [1] (setting [14]) and 0.75 ± 0.26 µM in test [2] (setting [15]).

In the case of `CC(C)=CCc1cc(C(=O)Nc2cc3ccc(OCCCN(C)C(C)C)c(C)c3oc2=O)ccc1O` [Compound 68h, 4-hydroxy-N-(7-(3-(isopropyl(methyl)amino)propoxy)-8-methyl-2-oxo-2H-chromen-3-yl)-3-(3-methylbut-2-en-1-yl)benzamide], the IC50 in test [1] (setting [14]) turned out to be 1.05 ± 0.06 µM; in test [2] (setting [15]) it was 0.57 ± 0.13 µM.

As to `CC(C)=CCc1cc(C(=O)Nc2cc3ccc(OCCCN(C(C)C)C(C)C)c(C)c3oc2=O)ccc1O` [Compound 68i, N-(7-(3-(diisopropylamino)propoxy)-8-methyl-2-oxo-2H-chromen-3-yl)-4-hydroxy-3-(3-methylbut-2-en-1-yl)benzamide], the IC50 came out at 1.31 ± 0.39 µM in test [1] (setting [14]) and 1.6 ± 0.02 µM in test [2] (setting [15]).

`CC(C)=CCc1cc(C(=O)Nc2cc3ccc(OC4CCN(C)CC4)c(C)c3oc2=O)ccc1O` [drawing 134]: the IC50 in test [1] (setting [3]) came to 1.09 ± 0.1 µM.
